In patent publication US12171886B2, “Mussel adhesive protein-based photothermal agent and photothermal-responsive adhesive nanoparticles” (POSTECH RESEARCH AND BUSINESS DEVELOPMENT FOUNDATION, priority 2018, dated 2024):

Assay: Absorbance of nanoparticles in the near-infrared region (UV-vis spectrometer)
Format: physicochemical
Details: control solutions without DOPA-metal complex
Experimental: Absorbances in the near-infrared region of the FeMAP NPs and VMAP NPs prepared in Example 1-3 were analyzed through a UV-vis spectrometer, and the analysis results are shown in FIG. 4.

SMILES | absorbance, absorption spectrum 500 nm to 900 nm
[Cl][Fe]([Cl])[Cl] [FeCl3] | almost no absorbance
[Cl][V]([Cl])[Cl] [VCl3] | almost no absorbance
